Measured values taken from patent US8937096B2, “Use of benzo-fused heterocyle sulfamide derivatives for the treatment of mania and bipolar disorder” (priority 2005, dated 2015).

System: hippocampal kindled seizures
Assay: Rat Hippocampal Kindling Test (Interruption of Kindled State)
Type: in vivo
Description: In the present rapid hippocampal kindling model adult male Sprague-Dawley rats (300-400 g) were surgically implanted with bipolar electrodes placed in the hippocampus. […] One week later, the rats received 2-3 supra-threshold stimulations delivered every 30 min before treatment with test compound, to ensure stability of the behavioral seizure stage and after-discharge duration. Fifteen minutes after the last stimulation, a single dose of vehicle or test compound was administered i.p. (intraperitoneally). After 15 min, each rat was then stimulated every 30 min for 3 to 4 h. After each stimulation, individual seizure scores and after-discharge durations were recorded. The group mean±SEM were calculated for each parameter. Eight rats per dose and a minimum of four doses were used to establish an ED50 value. Efficacy was measured as the ability of a compound to modify the seizure score (severity of spread) and after-discharge duration (ADD; excitability) of the generalized seizures.
Thus, according to the theories presented in current literature (Ghaemi, S. N., Boiman, E. E., and Goodwin, F. K., Soc. of Bio. Psychiatry, (1999), vol. 45, pp 137-144; Stoll, A. L., and Severus, W. E., Harvard Rev. Psychiatry, July/August (1996), Vol. 4, No. 2, pp 77-89) a decrease in seizure score and/or ADD may also be predictive of the ability of a test compound to treat the cycling associated with bipolar disorder.

## NS(=O)(=O)NC[C@H]1COc2cc(Cl)ccc2O1 [Compound #8, (2S)-(−)-N-(6-Chloro-2,3-dihydro-benzo[1,4]dioxin-2-ylmethyl)-sulfamide]
After treatment i.p.
  rats with significant reduction in global seizure activity (score <3): 6 out of 8
i.p., p=0.0003
  rats with seizure scores significantly reduced from 5 to 1: 4 out of 8
i.p., p=0.07
  effect on the ADD (after-discharge duration): no statistically significant effect
